Key:
[1] = test system: MiaPaCa (pancreas carcinoma); assay: Cell count analysis MiaPaCa; type: cell-based, human; conditions: MiaPaCa, 25, 50, 100 and 200 nM, 24 h
Description: (§1) FIG. 8 a-d: Effects of gliotoxin on cell counts of various human tumour cell lines in vitro. Cell counts of a) hepatocellular carcinoma cell lines HepG2, Huh7, SNU398, Hep3b, HeLa (cervix) and the cholangiocarcinoma cell line NEC as well as b) the pancreatic cancer cell line Panc-1 and the melanoma cell lines d) MelJuso, Meljuso-Bcl-2 (+) and 607B after 72 h treatment with 200 nM gliotoxin; c-d) Cell count dose range experiments with c) pancreatic carcinoma cell lines Panc-1 and MiaPaCa as well as melanoma cell lines MelJuso, 518A2 and 607B using 25, 50 100 and 200 nM gliotoxin for 24 h. All data are given relative to control ±standard deviation.
(§2) Tumour cells were seeded at a density of 10,000 cells/well in 24-well plates. 24 h after seeding, medium containing gliotoxin was added to yield desired concentrations of gliotoxin. At time points indicated, culture medium was removed by suction. Adherent cells were washed with DPBS (Cambrex, Verviers, Belgium) and incubated with trypsin (Gibco) at 37° C. Detached cells were transferred to test tubes containing Cellpack isotonic fluid (Sysmex Europe, Bornbarch, Germany) and counted with a Coulter Z1 electronic cell counter (Beckman Coulter, Bedford, UK).

518A2 (melanoma) = assay: Apoptosis flow cytometry (Annexin V / 7-AAD) 518A2; type: cell-based, human; conditions: 518A2, 200 nM gliotoxin, 24 h
Description: (§3) FIG. 10 a-b: Effects of gliotoxin on Notch2 regulation and apoptosis. The melanoma cell line 518A2 (A) and the pancreatic cancer cell line Panc-1 (B) were treated with 200 nM gliotoxin or vehicle control for 24 h Notch2 activity was analysed by band shift assay. Apoptosis was measured as annexin V and 7-AAD double positivity by FACS. Data are given as percentage of apoptotic cells ±standard deviation.
Tumour cells were seeded at a density of 50,000 cells/well in 6 well plates. 24 h after seeding, medium containing gliotoxin was added to yield desired concentrations of gliotoxin. After further 24 h cells were harvested, counted and washed twice with PBS. Then, 100,000 cells were resuspended in 100 μl binding buffer and stained with Annexin V-PE and 7-AAD (both Becton Dickinson, N.J., USA) according to manufacturer's recommendations. After 20 minutes incubation time at room temperature in the dark, 400 μl binding buffer was added and immediately analyzed on a FACScalibur flow cytometer using CellQuest software (both Becton Dickinson, N.J., USA)

[2] = test system: Hep3B (hepatocellular carcinoma); assay: Cell count analysis Hep3B; type: cell-based, human; conditions: 200 nM gliotoxin, 72 h
Description: as §1, §2

mouse cell line P388 = conditions: cited from earlier work
518A2 melanoma xenograft = assay: 518A2 melanoma nude mouse xenograft model; type: in vivo
Excerpt: FIG. 9: Effects of gliotoxin in a 518A2 melanoma nude mouse xenograft model. 518 A2 cells (9×10^6) were inoculated into the lower right and left flank of each mouse. […] The flexible dose and treatment schedule of each group are given in the squares next to each group in the figure. All data are given as mean tumour volumes ±95% CI. The dotted arrows indicate a significant decrease of tumour volume (Wilcoxon matched pairs test, P<0.05) within Group 2 and Group 4 three days after application of 5 mg-0-2.5 mg of gliotoxin. It was shown that even at late administrations with progressed tumours gliotoxin administration is effective group 4 (ip administration at day 25).
Pathogen-free, 4-6 week old, female athymic nude mice (Harlan Winkelmann, Borchen, Germany) were housed under sterile conditions and treated according to the regulations of the local animal welfare committee. Hundred μl of a tumour cell suspension in DPBS containing 9×10^6 518A2 cells were inoculated into the lower right and left flank of each mouse. When mean tumour volume reached approximately 75 mm^3 (based on caliper measurements), mice (n=8/control group, n=6/treatment group) were randomly assigned to treatment groups and received one of the following treatment regimens:
Control (2% DMSO), Group 1 (start dose 1 mg/kg i.p.), Group 2 (start dose 5 mg/kg i.v.), and Group 3 (start dose 5 mg ip) and Group 4 (start dose 7 mg s.c.).
Flexible explorative dosing schedule was used in this in vivo trial: At baseline, all treatment groups received their respective start dose to estimate immediate toxicity of gliotoxin. Beginning with day 4:
Group 1 received 1 mg/kg daily including day 19.
Group 2 received 5 mg i.v. at day 4 and day 7 followed by 5 mg-0-2.5 mg ip at day 11
Group 3 received 5 mg/kg i.p. once weakly including day 18.
Group 4 remained untreated until day 25 and received then 5 mg-0-2.5 mg once only. The trial was stopped when control mice reached a mean tumour volume of 1000 mm^3.
In the xenograft melanoma model, tumour volume of each group is given as mean±95% confidence interval. The anti-tumour effect of gliotoxin was described as tumour volume of treatment group/tumour volume of control group×100 (T/C).

Notch2 = Notch2 activity band shift assay in Panc-1; type: cell-based, human; conditions: Panc-1, 200 nM gliotoxin, 24 h
Description: as §3
500,000 cells were seeded on 12 cm^2 plates for 24 h and then treated with 200 nM gliotoxin. At the time points as indicated cells were harvested and immediately frozen at −80° C. The band shift assay was performed as described for B-CLL.

607B (melanoma) = assay: Cell count analysis 607B; type: cell-based, human
Description: as §1, §2

[3] = mice and rats; cited from earlier work
Meljuso-wt (melanoma) = assay: Cell count analysis Meljuso-wt; type: cell-based, human
Description: as §1, §2

CN1C(=O)[C@]23CC4=CC=C[C@H](O)[C@H]4N2C(=O)[C@@]1(CO)SS3 [gliotoxin, [3R-(3α,5aβ,6β,10aα)]-2,3,5a,6-tetrahydro-6-hydroxy-3-(hydroxymethyl)-2-methyl-10H-3,10a-epi-dithiopyrazino[1,2-a]indol-1,4-dion]
cytotoxicity in dose range experiment (cell count) [1]: clear dose dependent cytotoxicity | apoptotic cells (annexin V and 7-AAD double positive) (518A2 (melanoma)): 92% | mean reduction of cell numbers compared to vehicle treated controls [2]: 88% | IC50 with regard to cell viability (mouse cell line P388): 5,8 ng/ml | T/C (tumour volume of treatment group/control group×100) (518A2 melanoma xenograft; Group 1, 1 mg/kg i.p. daily until day 19, day 21): 37% | T/C (tumour volume of treatment group/control group×100) (518A2 melanoma xenograft; Group 2, 3×5 mg iv within 7 days then 1×5 mg-0-2.5 mg ip day 11, day 21): 32% | mean tumour volume (518A2 melanoma xenograft; Group 2, day 11 (before application of 5 mg-0-2.5 mg)): 115 mm^3 | mean tumour volume (518A2 melanoma xenograft; Group 2, day 15 (after application of 5 mg-0-2.5 mg at day 11)): 83 mm^3 | T/C (tumour volume of treatment group/control group×100) (518A2 melanoma xenograft; Group 3, 5 mg/kg i.p. weekly until day 18, day 21): 49% | T/C (tumour volume of treatment group/control group×100) (518A2 melanoma xenograft; Group 4, 5 mg-0-2.5 mg once at day 25, day 32): 23% | toxicity after subcutaneous application (518A2 melanoma xenograft; Group 4, 7 mg/kg s.c. start dose, nude mice): severe local toxicity | mean tumour volume (518A2 melanoma xenograft; Group 4, day 25 (before application of 5 mg-0-2.5 mg)): 576 mm^3 | mean tumour volume (518A2 melanoma xenograft; Group 4, day 28 (after application of 5 mg-0-2.5 mg at day 25)): 218 mm^3 | T/C (tumour volume of treatment group/control group×100) (518A2 melanoma xenograft; Group 4, single 7 mg/kg s.c. start dose, then untreated, day 25): 92% | Notch2 activity (band shift assay) (Notch2): only partly inhibited | effect on cell count (607B (melanoma); 607B, 200 nM gliotoxin, 72 h): very effective | cytotoxicity in dose range experiment (cell count) (607B (melanoma); 607B, 25, 50, 100 and 200 nM, 24 h): clear dose dependent cytotoxicity | LD50 [3]: 25 to 50 mg/kg | response (Meljuso-wt (melanoma); MelJuso (−BCL2), 0.2 μM (60 ng/ml)): ~100% | cytotoxicity in dose range experiment (cell count) (Meljuso-wt (melanoma); Meljuso, 25, 50, 100 and 200 nM, 24 h): clear dose dependent cytotoxicity | effect on cell count (Meljuso-wt (melanoma); Meljuso-wt, 200 nM gliotoxin, 72 h): very effective
